Data as given in patent US5602102A, “Dipeptidyl peptidase-I inhibitors and uses thereof” (Board of Regents, The Univ. of TX System, priority 1992, dated 1997).
Like-named read-outs stand apart in the source and are kept apart here. *1 amine or outer side, *2 acyl side, *3 side chain or, on linkers, in order; H or OH if unused. Where a SMILES comes first, the peptide text is derived from it. The star is where a group is joined. pNA = O=[N+]([O-])c1ccc(N*)cc1; AMC = Cc1cc(=O)oc2cc(N*)ccc12; Suc = O=C(CCC(=O)[*:2])[*:1]; βNA = c1ccc2cc(N*)ccc2c1; Cbz = O=C(OCc1ccccc1)*

Legend:
[1] = target: T1, human dipeptidyl peptidase-I (Homo sapiens, UniProt P53634); experiment: Effect of protease inhibitors on DPPI activity (purified enzyme); format: biochemical; set-up: Human DPPI is now established to constitute a 200,000 Da glycoprotein with 24,000 Da subunits; from tissue; host or cells: human cadaveric spleen
Protocol: Note. Purified human dipeptidyl peptidaseI (0.4 μg) was preincubated
with each of the inhibitors at the stated concentration for 15 min at
37° C.. Each sample was diluted 3fold with assay buffer containing
substrate and incubated for an additional 20 min.
Target sequence in this assay (P53634 231-394 limits assumed): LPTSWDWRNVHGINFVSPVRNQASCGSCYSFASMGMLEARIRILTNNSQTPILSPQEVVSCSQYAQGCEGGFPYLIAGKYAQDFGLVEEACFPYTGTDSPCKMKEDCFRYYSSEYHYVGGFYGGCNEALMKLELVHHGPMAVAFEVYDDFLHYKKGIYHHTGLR
Target sequence in this assay (P53634 25-134 limits assumed): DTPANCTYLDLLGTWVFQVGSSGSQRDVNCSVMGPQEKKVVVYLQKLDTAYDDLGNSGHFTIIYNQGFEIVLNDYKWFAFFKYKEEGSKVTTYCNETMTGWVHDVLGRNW
Target sequence in this assay (P53634 395-463 limits assumed): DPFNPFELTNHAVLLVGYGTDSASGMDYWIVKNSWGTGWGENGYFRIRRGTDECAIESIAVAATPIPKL

DPPI = DPPI (Homo sapiens, UniProt P53634); experiment: Substrate specificity of human DPPI: hydrolysis of synthetic peptide substrates; format: biochemical; set-up: Human DPPI is now established to constitute a 200,000 Da glycoprotein with 24,000 Da subunits; from tissue; host or cells: human cadaveric spleen; unit not given here
Chain of DPPI (P53634 231-394 limits assumed): as the sequence (P53634 231-394 limits assumed) above
Chain of DPPI (P53634 25-134 limits assumed): as the sequence (P53634 25-134 limits assumed) above
Chain of DPPI (P53634 395-463 limits assumed): as the sequence (P53634 395-463 limits assumed) above
Excerpt: The specificity of human DPPI was studied using a variety of synthetic peptide substrates. These substrates appear in Table 5.
Substrates with blocked amino-termini, with proline at the P1 position, arginine at the P2, or containing only single amino acids, were not hydrolyzed. […] The amino-terminal sequence of bovine α-casein, Arg--Pro, prohibits the processive cleavage of amino-terminal dipeptides from this protein and therefore should increase the ability to specifically detect endoproteolytic activity, if present.

NK cells = experiment: Depletion of NK cells by dipeptide esters; format: cell-based
[2] = target: T1, human dipeptidyl peptidase-I
[3] = target: murine granzyme A proenzyme (murine) (UniProt P11032); conditions: scale: Δabsorbance410/hour per cells
[4] = inhibitor 1 mM, preincubated 15 min at 37° C., read-out: Percentage control activity
[5] = inhibitor 1 mM, preincubated 15 min at 37° C.

Compound | hydrolysis of substrate peptide by human DPPI (DPPI; substrate concentration 100 μM) | hydrolysis of substrate peptide by human DPPI (DPPI; substrate concentration 500 μM) | also measured
c1cnc2c(c1)ccc1cccnc12 [1,10-Phenanthroline] | – | – | remaining activity at 1000 µM [1, 4]: 98%
c1ccc(SSc2ccccn2)nc1 [2,2'-Dithiodipyridine] | – | – | remaining activity at 400 µM ([1]; inhibitor 400 μM, preincubated 15 min at 37° C., read-out: Percentage control activity): 9%; effect on DPPI activity (in words) ([1]; screening conditions pH 5.5): inhibited
CC(N)C(=O)NC(C)C(=O)NC(C(=O)NC(C)C(=O)Nc1ccc([N+](=O)[O-])cc1)C(C)C (stereo not drawn) [Ala-Ala-Val-Ala-pNA] (H-AAVA-pNA; configuration not given here) | 120 | 120 | –
C[C@H](N)C(=O)N[C@@H](C)C(=O)Nc1ccc([N+](=O)[O-])cc1 [Ala-Ala-pNA] (H-Ala-Ala-pNA) | 380 | 1000 | –
C[C@H](N)C(=O)Nc1ccc2ccccc2c1 [Ala-βNA] | 0 | 0 | –
N=C(N)NCCC[C@H](NC(=O)[C@@H](N)CCCNC(=N)N)C(=O)Nc1ccc2ccccc2c1 [Arg-Arg-βNA] (H-Arg-Arg-βNA) | 0 | 0 | –
NC(N)=NCCC[C@H](N)C(=O)Nc1ccc2ccccc2c1 [Arg-βNA] | 0 | 0 | –
C[C@H](NC(=O)[C@@H](N)CC(=O)O)C(=O)Nc1ccc2ccccc2c1 [Asp-Ala-βNA] (H-Asp-Ala-βNA) | 250 | 1000 | –
CC(C)C[C@H](NC(=O)[C@@H](O)[C@H](N)Cc1ccccc1)C(=O)O [Bestatin] | – | – | remaining activity at 500 µg/mL ([1]; inhibitor 500 μg/ml, preincubated 15 min at 37° C., read-out: Percentage control activity): 103%; effect on DPPI activity (in words) ([1]; screening conditions pH 5.5): no effect
NC(N)=NCCC[C@H](NC(=O)OCc1ccccc1)C(=O)N[C@@H](CCCN=C(N)N)C(=O)Nc1ccc2ccccc2c1 [CBZ-Arg-Arg-βNA] (Cbz-Arg-Arg-βNA) | 0 | 0 | –
N=C(N)NCCCC(NC(=O)OCc1ccccc1)C(=O)Nc1ccc2ccccc2c1 (stereo not drawn) [CBZ-Arg-βNA] | 0 | 0 | –
Cc1cc(=O)oc2cc(NC(=O)[C@H](CCCN=C(N)N)NC(=O)[C@@H]3CCCN3C(=O)CNC(=O)OCc3ccccc3)ccc12 [CBZ-Gly-Pro-Arg-AMC] (Cbz-Gly-Pro-Arg-{AMC}) | 0 | 0 | –
Cc1cc(=O)oc2cc(NC(=O)C(CCCCN)NC(=O)OCc3ccccc3)ccc12 (stereo not drawn) [CBZ-Lys-AMC] | 0 | 0 | –
O=C(NC(Cc1ccccc1)C(=O)Nc1ccc2ccccc2c1)OCc1ccccc1 (stereo not drawn) [CBZ-Phe-βNA] | 0 | 0 | –
COc1cc(NC(=O)[C@H](CCCN=C(N)N)NC(=O)[C@H](CC(C)C)NC(=O)[C@@H](NC(=O)OCc2ccccc2)C(C)C)cc2ccccc12 [CBZ-Val-Leu-Arg-MNA] | 0 | 0 | –
COc1cc(NC(=O)C(CCCN=C(N)N)NC(=O)CN)cc2ccccc12 (stereo not drawn) [Gly-Arg-MNA] | 2500 | 4750 | –
Cc1cc(=O)oc2cc(NC(=O)[C@H](Cc3ccccc3)NC(=O)CN)ccc12 [Gly-Phe-AMC] (H-Gly-Phe-{AMC}) | 3500 | 6120 | –
COc1cc(NC(=O)C(Cc2ccccc2)NC(=O)CN)cc2ccccc12 (stereo not drawn) [Gly-Phe-MNA] | 3500 | 5750 | –
NCC(=O)N[C@@H](Cc1ccccc1)C(=O)Nc1ccc([N+](=O)[O-])cc1 [Gly-Phe-pNA] (H-Gly-Phe-pNA) | 120 | 380 | –
NCC(=O)N[C@@H](Cc1ccccc1)C(=O)Nc1ccc2ccccc2c1 [Gly-Phe-βNA] (H-Gly-Phe-βNA) | 2380 | 4380 | –

Compound | hydrolysis of substrate peptide by human DPPI (DPPI; substrate concentration 100 μM) | hydrolysis of substrate peptide by human DPPI (DPPI; substrate concentration 500 μM) | also measured
COc1cc(NC(=O)[C@@H]2CCCN2C(=O)CN)cc2ccccc12 [Gly-Pro-MNA] | 0 | 0 | –
NCC(=O)N1CCC[C@H]1C(=O)Nc1ccc2ccccc2c1 [Gly-Pro-βNA] (H-Gly-Pro-βNA) | 0 | 0 | –
NCC(=O)Nc1ccc2ccccc2c1 [Gly-βNA] | 0 | 0 | –
O=C(O)CI [Iodoacetic acid] | – | – | effect on DPPI activity (in words) ([1]; pH 5.5): potently inhibited; remaining activity at 1000 µM ([1]; read-out: Percentage control activity): 10%
CC(C)C[C@H](N)C(=O)Nc1ccc2ccccc2c1 [Leu-βNA] | 0 | 0 | –
COC([CH2][Hg+])CNC(=O)c1ccccc1OCC(=O)O.[OH-] (stereo not drawn) [Mersalyl acid] | – | – | Percentage control activity [1, 5]: 3%; effect on DPPI activity (in words) ([1]; screening conditions pH 5.5): potently inhibited
CCN1C(=O)C=CC1=O [N-Ethylmaleimide] | – | – | remaining activity at 1000 µM [1, 4]: 63%; effect on DPPI activity (in words) ([1]; screening conditions pH 5.5): inhibited
N[C@@H](Cc1ccccc1)C(=O)Nc1ccc2ccccc2c1 [Phe-βNA] | 0 | 0 | –
Cc1cc(=O)oc2cc(NC(=O)[C@H](CCCN=C(N)N)NC(=O)[C@H](Cc3ccccc3)NC(=O)[C@@H]3CCCN3)ccc12 [Pro-Phe-Arg-AMC] (H-Pro-Phe-Arg-{AMC}) | 0 | 0 | –
O=C(Nc1ccc2ccccc2c1)[C@@H]1CCCN1 [Pro-βNA] | 0 | 0 | –
COc1cc(NC(=O)C(Cc2ccc(O)cc2)NC(=O)C(N)CO)cc2ccccc12 (stereo not drawn) [Ser-Tyr-MNA] | 1000 | 1750 | –
N[C@@H](CO)C(=O)N[C@@H](Cc1ccc(O)cc1)C(=O)Nc1ccc2ccccc2c1 [Ser-Tyr-βNA] (H-Ser-Tyr-βNA) | 1750 | 2000 | –
C[C@H](NC(=O)CCC(=O)O)C(=O)N[C@@H](C)C(=O)N[C@@H](C)C(=O)Nc1ccc([N+](=O)[O-])cc1 [Suc-Ala-Ala-Ala-pNA] | 0 | 0 | –
C[C@H](NC(=O)CCC(=O)O)C(=O)N[C@@H](C)C(=O)N1CCC[C@H]1C(=O)N[C@@H](Cc1ccccc1)C(=O)Nc1ccc([N+](=O)[O-])cc1 [Suc-Ala-Ala-Pro-Phe-pNA] (Suc-AAPF-pNA) | 0 | 0 | –
Cc1ccc(S(=O)(=O)NC(CCCCN)C(=O)CCl)cc1 (stereo not drawn) [TLCK, 1-chloro-3-tosylamido-7-amino-2-heptanone] | – | – | Percentage control activity [1, 5]: 5%; effect on DPPI activity (in words) ([1]; screening conditions pH 5.5): potently inhibited
CC(C)C[C@H](NC(=O)[C@@H](N)CC(C)C)C(=O)OCc1ccccc1 [benzyl ester derivative of Leu--Leu--OMe] | – | – | more potent than Leu--Leu--OMe in mediating depletion of NK cells (NK cells): 5 fold
CCCC[C@H](NC(=O)[C@@H](N)CCCC)C(=O)OC [norleucyl-norleucine methyl ester] | – | – | more active than Leu--Leu--OMe (NK cells): 2 fold
Cystatin [listing 1 of 2 here] | – | – | Percentage control activity ([1]; inhibitor 50 μg/ml, preincubated 15 min at 37° C.): 32%; effect on DPPI activity (in words) ([1]; screening conditions pH 5.5): potently inhibited
Cystatin [listing 2 of 2 here] | – | – | Percentage control activity of purified human DPPI (% of control activity (at 50 µg/ml)) [2]: 32
murine dipeptidyl peptidase-I (from UniProt P97821) (enzyme) | – | – | generation of BLT esterase activity in murine alloreactive CD8(+) T cells with DPPI inhibited [3]: 3.3
